Results: PMC9317628, “Secondary Metabolites in the Dendrobium heterocarpum Methanolic Extract and Their Impacts on Viability and Lipid Storage of 3T3-L1 Pre-Adipocytes” (Nutrients, 2022)

Legend:
3T3-L1 cells [1] = assay: Oil Red O staining, cellular lipid content in differentiating cells; assay type: cell-based, mouse; conditions: for effect on cellular lipid storage (percentage of Oil Red O-stained cells): 5 µM, 48 h exposure, staining on day 8, vs untreated vehicle control; for IC50: Mus musculus, 3T3-L1, based on percentage of Oil Red O-stained, read-out: IC50 to suppress cellular lipid accumulation
Method: The mouse embryonic 3T3-L1 pre-adipocytes purchased from the American Type Culture Collection (ATCC, Manassas, VA, USA) were cultured at 37 °C with a 5% CO2 stream in a complete Dulbecco’s modified Eagle medium (DMEM) (Gibco, Gaithersburg, MA, USA) that contained 10% fetal bovine serum (FBS; Gibco, Gaithersburg, MA, USA), 1000 units mL^−1 of penicillin/streptomycin (Gibco, Gaithersburg, MA, USA), and 2 mM of L-glutamine (Gibco, Gaithersburg, MA, USA). For adipocyte differentiation, 3T3-L1 cells at 100% confluent were incubated at 37 °C with a 5% CO2 stream for two days in a differentiation medium made of the complete DMEM plus 0.5 mM isobutyl methylxanthine (IBMX) (Sigma Aldrich, St. Louis, MO, USA), 1 µM of dexamethasone (Sigma Aldrich, St. Louis, MO, USA), and 5 µg mL^−1 of insulin (Sigma Aldrich, St. Louis, MO, USA). Then, the medium was replaced with an insulin medium made of the complete DMEM plus 5 µg mL^−1 of insulin, and cells were continuously incubated under the same conditions for another two days. The medium was replaced with the complete DMEM every two days to maintain adipocyte development. Cellular lipid droplets developed along the differentiation program could be observed under a light microscope (Nikon Ts2, Tokyo, Japan). Oil Red O staining was performed to determine the content of lipid droplets in differentiating 3T3-L1 cells. The adipocyte differentiation program as described previously was established, and cells were exposed to each tested compound at 5 µM for 48 h after obtaining 100% confluence. Cells exposed to 0.5% (v/v) DMSO and 20 µM of oxyresveratrol served as untreated vehicle and positive controls, respectively. Tested compounds were diluted in the differentiation medium before testing, in which the concentrations of DMSO were restricted to be lower than 0.5% (v/v). After the treatments, differentiating 3T3-L1 cells on day 8 of the differentiation program were fixed with 10% formalin and incubated with the Oil Red O staining solution (Sigma Aldrich, St. Louis, MO, USA) at an ambient temperature for 1 h. Cells were then washed thrice with distilled water and 60% (v/v) isopropanol (Sigma Aldrich, St. Louis, MO, USA) to remove the excess dye. Oil Red O-stained 3T3-L1 cells were observed using a light microscope (Nikon Ts2, Tokyo, Japan). The cellular Oil Red O content was extracted using absolute isopropanol and measured for absorbance at a 510 nm wavelength by the microplate reader. The percentage of Oil Red O-stained cells was calculated after normalization with the total cellular protein content determined by a BCA protein assay kit (Thermo Scientific, Rockford, CA, USA).

3T3-L1 pre-adipocytes = assay: MTT cytotoxicity assay (cell viability); assay type: cell-based, mouse; conditions: 48 h; for non-cytotoxic concentrations: no significant difference from vehicle control; for cytotoxic effect (cell viability vs untreated vehicle control): 5 µM (lowest tested concentration)
Method: (§1) The mouse embryonic 3T3-L1 pre-adipocytes purchased from the American Type Culture Collection (ATCC, Manassas, VA, USA) were cultured at 37 °C with a 5% CO2 stream in a complete Dulbecco’s modified Eagle medium (DMEM) (Gibco, Gaithersburg, MA, USA) that contained 10% fetal bovine serum (FBS; Gibco, Gaithersburg, MA, USA), 1000 units mL^−1 of penicillin/streptomycin (Gibco, Gaithersburg, MA, USA), and 2 mM of L-glutamine (Gibco, Gaithersburg, MA, USA). For adipocyte differentiation, 3T3-L1 cells at 100% confluent were incubated at 37 °C with a 5% CO2 stream for two days in a differentiation medium made of the complete DMEM plus 0.5 mM isobutyl methylxanthine (IBMX) (Sigma Aldrich, St. Louis, MO, USA), 1 µM of dexamethasone (Sigma Aldrich, St. Louis, MO, USA), and 5 µg mL^−1 of insulin (Sigma Aldrich, St. Louis, MO, USA). Then, the medium was replaced with an insulin medium made of the complete DMEM plus 5 µg mL^−1 of insulin, and cells were continuously incubated under the same conditions for another two days. The medium was replaced with the complete DMEM every two days to maintain adipocyte development. Cellular lipid droplets developed along the differentiation program could be observed under a light microscope (Nikon Ts2, Tokyo, Japan). The cytotoxic effect of elucidated compounds from D. heterocarpum on 3T3-L1 cell viability was evaluated using 3-(4,5-dimethylthiazol-2-yl)-2,5-diphenyl tetrazolium bromide (MTT) (Sigma Aldrich, St. Louis, MO, USA) assay. 3T3-L1 cells were seeded in 96-well plates at a density of 2 × 10^3 cells/well and incubated at 37 °C with a 5% CO2 stream until reaching 100% confluent. Cells were then exposed to varying concentrations (5, 10, and 20 µM) of the tested compounds in the complete DMEM for 48 h. Before testing, every tested compound resuspended in absolute dimethyl sulfoxide (DMSO) (Sigma Aldrich, St. Louis, MO, USA) was prepared by dilution using the complete DMEM. The concentration of DMSO in each treatment was limited to <0.5% (v/v). DMSO at 0.5% (v/v) and 20 µM of oxyresveratrol (a known compound with the ability to suppress adipocyte differentiation) were included in the tests as untreated vehicle and positive controls, respectively. After exposure for 48 h, the medium was removed, and the MTT solution (0.45 mg mL^−1), prepared by dissolving in phosphate-buffered saline (PBS), was added. The assay was incubated at 37 °C with a 5% CO2 stream for 3 h. Then, the MTT solution was replaced with absolute DMSO to dissolve the purple formazan crystal that formed, which was further measured for absorbance at a 570 nm wavelength using a microplate reader (Anthros, Durham, NC, USA). The relative absorbance value between treated cells to vehicle control cells was presented as the percentage of cell viability. Non-cytotoxic concentrations of a tested compound were defined based on no significant difference in the percentages of cell viability derived from the treatments and the vehicle control.

p38 = assay: Western blot, p38 phosphorylation ratio; assay type: cell-based, mouse; conditions: 48 h, vs untreated vehicle control
Method: (§2) The impacts of a tested compound on the expression and activation of proteins that are linked to cellular responses in the early phase of adipocyte differentiation were assessed using Western blot analysis. The list of proteins analyzed in this study included adipogenic regulators (i.e., PPARγ and C/EBPα) and the MAPK signaling pathways-mediated proteins (i.e., JNK, ERK, and p38). The expression or activation of each target protein was normalized with β-Actin as a reference cellular protein. The activation of JNK, ERK, and p38 was assessed using the phosphorylation ratio between those phosphorylated (i.e., p-ERK, p-JNK, and p-p38) and the sum of those phosphorylated and non-phosphorylated.
(§3) 3T3-L1 pre-adipocytes at 100% confluence were exposed for 48 h to a tested compound at non-cytotoxic concentrations prepared in the differentiation medium. Cells were then washed with PBS (pH 7.4) and used for protein extraction by incubation in an ice-cold radio-immunoprecipitation assay buffer (Thermo Scientific, Rockford, CA, USA) supplemented with the protease inhibitor cocktail (Roche Applied Science, Indianapolis, IN, USA) for 45 min. Derived cell lysates were centrifuged at 4 °C, 6440× g for 15 min, and the supernatant was collected. The BCA protein assay kit was conducted to quantify the total protein content in the supernatant. […]

ERK = assay: Western blot, ERK phosphorylation ratio; assay type: cell-based, mouse; conditions: 48 h, vs untreated vehicle control
Method: as §2, §3

[2] = system: HeLa cervical cancer cell line; set-up: method as in doi:10.1177/1934578X20908678; conditions: cited from earlier work
PPARγ = assay: Western blot, PPARγ expression at early adipocyte differentiation; assay type: cell-based, mouse; conditions: 10 µM, 48 h in differentiation medium
Method: as §2, §3

JNK = assay: Western blot, JNK phosphorylation ratio; assay type: cell-based, mouse; conditions: 48 h, vs untreated vehicle control
Method: as §2, §3

C/EBPα = assay: Western blot, C/EBPα expression at early adipocyte differentiation; assay type: cell-based, mouse; conditions: 10 µM, 48 h in differentiation medium
Method: as §2, §3

3T3-L1 cells [3] = assay: Nuclear staining with Hoechst 33342 / propidium iodide (cell death); assay type: cell-based; conditions: 20 µM, 48 h, Hoechst 33342/PI
Method: 3T3-L1 cell death after exposure to varying concentrations of the tested compounds was also determined by the nuclear staining technique. Hoechst 33342 (Sigma Aldrich, St. Louis, MO, USA) and propidium iodide (PI) (Sigma Aldrich, St. Louis, MO, USA) were used as staining dyes. After 48 h of treatment, the assay medium was removed from 3T3-L1 cells and replaced with PBS containing 2 µg mL^−1 of Hoechst 33342 and 1 µg mL^−1 of PI. Cells were stained for 30 min at 37 °C with a 5% CO2 stream and observed/photographed under a fluorescence microscope (Olympus IX51 with DP70, Tokyo, Japan). Bright cells with a disseminated nucleus under both blue and red filters were referred to as dead cells.

pancreatic lipase = conditions: cited from earlier work
α-glucosidase = conditions: cited from earlier work
[4] = MTT cytotoxicity assay (cell viability); assay type: cell-based, mouse; conditions: mouse, 3T3-L1 pre-adipocytes, 20 µM, relative to vehicle control, read-out: percentage of cell viability
Method: as §1

3T3L-1 cells = system: 3T3L-1 cells; set-up: method as in PMID 32571087; conditions: cited from earlier work

Structure (SMILES): COc1ccc(CCc2cc(OC)c(O)c(OC)c2)cc1 [Compound 1, amoenylin]
- effect on cellular lipid storage (percentage of Oil Red O-stained cells) (3T3-L1 cells [1]): significantly decrease

Structure (SMILES): COC(=O)CCc1ccc(O)cc1 [Compound 2, methyl 3-(4-hydroxyphenyl) propionate]
- effect on cellular lipid storage (percentage of Oil Red O-stained cells) (3T3-L1 cells [1]): significantly decrease
- non-cytotoxic concentrations (3T3-L1 pre-adipocytes): ≤ 10 µM

Structure (SMILES): COc1ccc(CCc2cc(O)c(O)c(OC)c2)cc1 [Compound 3, 3,4-dihydroxy-5,4′-dimethoxybibenzyl]
- p38 phosphorylation (p38; 2.5 µM): did not affect
- p38 phosphorylation (p38; 10 µM): significantly suppressed
- ERK phosphorylation (ERK; 2.5 µM): did not affect
- ERK phosphorylation (ERK; 10 µM): significantly suppressed
- cytotoxic effect on HeLa cells [2]: did not show a cytotoxic effect
- effect on cellular lipid storage (percentage of Oil Red O-stained cells) (3T3-L1 cells [1]): significantly decrease
- IC50 (3T3-L1 cells [1]): 6.3 ± 0.1 µM
- IC50 fold lower than oxyresveratrol (3T3-L1 cells [1]; lipid accumulation IC50 ratio to positive control): approximately 3 fold
- PPARγ expression relative to β-Actin (PPARγ): maximum suppression
- JNK phosphorylation (JNK; 2.5 µM): did not affect
- JNK phosphorylation (JNK; 10 µM): significantly suppressed
- C/EBPα expression relative to β-Actin (C/EBPα): maximum suppression
- dead cells by nuclear staining (3T3-L1 cells [3]): some dead cells
- non-cytotoxic concentrations (3T3-L1 pre-adipocytes): ≤ 10 µM

Structure (SMILES): COc1ccc(CCc2cc(OC)c3c(c2)O[C@@H](c2cc(OC)c(O)c(OC)c2)[C@H](CO)O3)cc1 [Compound 4, dendrocandin B]
- pancreatic lipase activity inhibition (pancreatic lipase): did not hamper
- effect on cellular lipid storage (percentage of Oil Red O-stained cells) (3T3-L1 cells [1]): absence of its bioactivity to suppress lipid accumulation
- α-glucosidase activity inhibition (α-glucosidase): did not hamper
- viability at 48 h, 20 µM [4]: 61.3 ± 1.1%
- cytotoxic effect (cell viability vs untreated vehicle control) (3T3-L1 pre-adipocytes): significant decrease in cell viability

Structure (SMILES): COc1ccc(CCc2cc(OC)c(O)c3c2C(Cc2ccc(OC)cc2)c2cc(O)c(O)c(OC)c2O3)cc1 (stereo not shown) [Compound 5, dendrofalconerol A]
- pancreatic lipase activity inhibition (pancreatic lipase): strong capability to inhibit
- effect on cellular lipid storage (percentage of Oil Red O-stained cells) (3T3-L1 cells [1]): did not exhibit the inhibitory effect on lipid accumulation
- α-glucosidase activity inhibition (α-glucosidase): strong capability to inhibit
- viability at 48 h, 20 µM [4]: 61.3 ± 1.1%
- cytotoxic effect (cell viability vs untreated vehicle control) (3T3-L1 pre-adipocytes): significant decrease in cell viability

Structure (SMILES): COc1cc([C@H]2OC[C@H]3[C@@H]2CO[C@@H]3c2cc(OC)c(O)c(OC)c2)cc(OC)c1O [Compound 6, syringaresinol]
- promotion of glucose uptake (3T3L-1 cells): no function to promote glucose uptake
- effect on cellular lipid storage (percentage of Oil Red O-stained cells) (3T3-L1 cells [1]): significantly decrease
- non-cytotoxic concentrations (3T3-L1 pre-adipocytes): ≤ 10 µM

Structure (SMILES): Oc1cc(O)cc(/C=C/c2ccc(O)cc2O)c1 [oxyresveratrol, reference compound]
- IC50 (3T3-L1 cells [1]): 20.2 ± 1.2 µM
